Experimental data as given in patent US10159672B2 (PARION SCIENCES, INC., priority 2011, dated 2018).

Experiments:
[1] = tested on: Human Bronchial Epithelial Cells; experiment: Absorption rate across human bronchial epithelial cells; format: in vitro ADME; details: n=3
Experimental: Bronchial cells (dog, human, sheep, or rodent cells) are seeded at a density of 0.25×10^6/cm^2 on a porous Transwell-Col collagen-coated membrane with a growth area of 1.13 cm^2 grown at an air-liquid interface in hormonally defined media that promotes a polarized epithelium. From 12 to 20 days after development of an air-liquid interface (ALI) the cultures are expected to be >90% ciliated, and mucins will accumulate on the cells. To ensure the integrity of primary airway epithelial cell preparations, the transepithelial resistance (R1) and transepithelial potential differences (PD), which are indicators of the integrity of polarized nature of the culture, are measured. […] Concentrations are determined by measuring intrinsic fluorescence of each sodium channel blocker using a Fluorocount Microplate Flourometer or HPLC. Quantitative analysis employs a standard curve generated from authentic reference standard materials of known concentration and purity. […]
In the first series of assays, the interaction of test compounds in KBR as an “ASL” stimulant are applied to the apical surface of human airway epithelial cells grown in the T-Col insert system. […] In instances where the fluorescence properties of the test molecule are not adequate for such characterizations, radiolabeled compounds are used for these assays. […]

[2] = Human plasma protein binding; format: in vitro ADME; details: n=6, read-out: Human Plasma Protein Binding, bound to plasma proteins (converted)
[3] = tested on: ExLac Rats; experiment: Phenol red thread (PRT) measurement of tear output in ExLac rats; format: in vivo, Sprague Dawley
Experimental: Procedures for Phenol Red Thread (PRT) Measurement of Tear Output:
Animal Species/Strain: Rats, Sprague Dawley (SD); Lacrimal gland surgically removed (ExLac).
Animal Number/Sex: 3-4 females/group
Test Article Formulation: All stock solutions for each dosing arm were prepared no more than 48 hours prior to the start of the study. The concentration of ENaC blockers in all test article solutions were confirmed by spectrophotometry.
Test Article Administration: Both the ipsilateral and contralateral eyes were dosed with 5 […]1 of test article solution.
Phenol Red Thread (PRT) Test: Tear production was measured using the ZoneQuick cotton thread with impregnated phenol red dye. The folded end of the thread was held in the lateral-ventral conjunctival cul-de-sac for 10 seconds. The length of tear wicking onto the thread was determined by measuring the length of the thread that changes color from yellow to red. Use of a stereomicroscope was assist in the accurate measurement (recorded in millimeters) of the wicking/color change.

[4] = Clearance from the ocular surface (extraction from PRT threads, UPLC); format: in vivo, Rats, Sprague Dawley
Experimental: Procedure for P-1046 (Compound 15 Formula I, aka I, aka P-1046, aka 1046): […]
Extraction from PRT Threads:
All PRT threads were collected in eppendorf tubes and stored at −20 C until the time of drug concentration analysis. P-1046 was extracted from threads and analyzed as follows:
• 1. 200 μL of 70% ACN (70% ACN, 30% H2O) was added into sample tubes which have threads in them. • 2. Tubes from Step 1 were vortexed for 30 seconds and sonicated for 1 minute to fully immerse the threads. • 3. The sample solutions were incubated for 4 hours at room temperature. • 4. Samples were vortexed again for 30 seconds. • 5. 75 μL, of the each sample solution (from step 4) was removed into 96-well UPLC plate with an additional 75 μL of mobile phase A (5 mM ammonium formate, 0.1% formic acid in H2O) added into each sample well. • 6. Analytical standards (10 mM, 1 mM, 100 µM, 10 µM, 1 µM, 100 nM, Buffer) were prepared identically to the thread solutions. • 7. Drug concentrations from all samples were analyzed by UPLC. Solubility and Stability Testing for Compound 15 (Formula I, aka I, aka P-1046, aka 1046): Procedure for Solubility and Stability Evaluation: • 1. Prepare 2.8% NaCl and 25 mM citrate buffer, pH of the solution 4.2. The osmolality of the solution is approximately 940 mOsM. • 2. Add appropriate amount of buffer solution to a test compound to make approximate concentration of 10 mg/mL. • 3. Vortex the solution for 15 seconds, sonicate for 30 seconds, again vortex for 60 seconds and visually observe the solution. • 4. Calculate final concentration of the solution by a spectrophotometer. • Remove a portion of solution and dilute it to 1:10 ratio. Put this solution at 50° C. for the accelerated stability study for 10 days. • Obtain stability data by HPLC analysis • 5. Prepare 2.8% NaCl and 25 mM citrate buffer, pH of the solution 4.2. The osmolality of the solution is approximately 940 mOsM. • 6. Add appropriate amount of buffer solution to a test compound to make approximate concentration of 10 mg/mL. • 7. […]

## CN(C)C(=O)[C@H](CCCCNC(=N)N)NC(=O)[C@H](CCc1ccc(CCCCNC(=N)NC(=O)c2nc(Cl)c(N)nc2N)cc1)N(C)C [Compound I, 3,5-diamino-6-chloro-N-(N-(4-(4-((S)-3-(dimethylamino)-4-((S)-1-(dimethylamino)-6-guanidino-1-oxohexan-2-ylamino)-4-oxobutyl)phenyl)butyl)carbamimidoyl)pyrazine-2-carboxamide]
[1]
  Absorption Rate Across Human Bronchial Epithelial Cells: 0.12±0.05 nM/cm^2/min
[2]
  fraction unbound: 0.2
[3]; 2 hours post-dose, all dose groups except 0.1 mM
  Tear output (PRT) in ExLac rats, duration of effect: still observed
[3]; all concentrations, 15 minutes post-dose, n=4
  Tear output (PRT) in ExLac rats: increases tear output in ExLac rats 15 minutes post-dose at or slightly below tear output values observed for normal rats
[3]; single 10 mM dose, baseline corrected, p <0.03
  Tear output, baseline corrected data, significance vs vehicle: statistically significant at all post-dose time points
[3]; single 10 mM dose, n=3
  Tear volume relative to vehicle controls: increased tear volume relative to vehicle controls
[3]; single 10 mM dose, raw PRT values
  Tear output, raw data, significance vs vehicle: not significant beyond 60 minutes
[4]; all concentrations tested
  Clearance from the ocular surface, profile: apparent bi-phasic clearance
[4]; dosed concentration >1 mM, 30 to 120 minutes post-dose
  Concentration on ocular surface during the slow clearance phase vs IC50: well above the IC50
[4]; post-dose, followed by slow clearance phase 30 to 120 minutes
  Time by which the majority of the drug is cleared from the ocular surface: ≤ 30 min
